The results in this text go back to patent US5344843A, “Cat-1 inhibitors, pharmaceutical compositions and methods of use” (Hoffman-La Roche Inc., priority 1992, dated 1994).

For orientation: IC50 means the concentration needed to halve the response being measured. In general, inhibition refers to the relative decrease from the control value, in per cent.

Assay [1] deals with T1, CAT-1 (carnitine acyltransferase 1) (Rattus norvegicus, UniProt Q63704).
T1 construct: This preparation is used as the isolated mitochondrial preparation; from tissue; host or cells: rat heart (atria removed), isolated mitochondria
T1 sequence (Q63704 1-772): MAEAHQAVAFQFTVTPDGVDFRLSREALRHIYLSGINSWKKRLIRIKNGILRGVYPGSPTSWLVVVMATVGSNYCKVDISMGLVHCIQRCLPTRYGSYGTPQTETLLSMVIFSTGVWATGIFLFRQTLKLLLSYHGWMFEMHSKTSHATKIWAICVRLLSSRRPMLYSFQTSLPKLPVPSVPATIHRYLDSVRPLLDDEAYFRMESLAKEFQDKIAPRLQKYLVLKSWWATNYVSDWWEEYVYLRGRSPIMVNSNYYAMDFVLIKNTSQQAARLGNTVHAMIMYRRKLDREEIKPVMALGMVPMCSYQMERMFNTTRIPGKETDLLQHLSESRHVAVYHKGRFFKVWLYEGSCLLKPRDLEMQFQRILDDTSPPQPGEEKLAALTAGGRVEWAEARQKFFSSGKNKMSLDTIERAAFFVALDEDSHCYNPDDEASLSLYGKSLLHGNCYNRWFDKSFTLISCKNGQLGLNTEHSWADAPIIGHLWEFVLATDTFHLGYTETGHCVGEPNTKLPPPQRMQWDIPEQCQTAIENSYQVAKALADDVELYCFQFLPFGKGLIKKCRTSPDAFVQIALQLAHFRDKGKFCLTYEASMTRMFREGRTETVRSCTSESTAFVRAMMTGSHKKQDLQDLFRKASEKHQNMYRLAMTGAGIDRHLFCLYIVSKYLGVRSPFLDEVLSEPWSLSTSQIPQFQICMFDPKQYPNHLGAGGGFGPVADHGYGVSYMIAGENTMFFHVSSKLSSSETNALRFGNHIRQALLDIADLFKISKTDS
Kind of assay: Secondary Screen--Inhibition of CAT-1 in intact cardiac myocytes (hypoxia-induced increase in long-chain acylcarnitines). The format is cell-based. The following applies: isolated rat cardiac myocytes; for IC50: 50% inhibition of hypoxia-induced increase in long-chain acylcarnitines; for inhibition: hypoxia. Further details: inhibition: dose or concentration left out as unconfirmed.
Description: Secondary Screen--Inhibition of CAT-1 in intact Cardiac Myocytes
(a) Preparation of Isolated Rat Cardiac Myocytes
Four hearts are excised from anesthetized rats and perfused retrogradly via the Langendorf technique. Each heart receives 100 mL of Krebs (NaCl, 118.4 mM; KCL, 4.6 mM; NaH2 PO4, 1.0 mM; NaHCO3, 20 mM; MgSO4, 2 mM; CaCl2, 50 μM; glucose, 11.0 mM), 100 mL of Ca++ free Krebs and finally 100 mL of 0.5% collagenase (Boehringer Mannhelm, type 1) in Hepes (NaCl, 115 mM; KCl, 5 mM; sucrose, 35 mM; glucose, 10 mM; Hepes, 10 mM; taurine, 4 mM; MgSO4, 2 mM; CaCl2, 50 μM). After these perfusions, the hearts are chopped into pieces, approx. 0.5 cm×0.5 cm and placed in four 125 mL plastic bottles along with 25 mL of collagenase/Hepes situated in a water bath maintained at 35° C. The pieces of cardiac tissue in each bottle are agitated by using a Harvard respirator connected to four glass syringes, which sucks the tissue up and down each tube during each respiratory cycle. After fifteen minutes, the collagenase/Hepes is removed and replaced with fresh collegenase/Hepes and the process repeated. The collegenase/Hepes from the subsequent fifteen minute harvests are centrifuged at 500 g to pellet the cells which are then resuspended in Hepes buffer. After six harvests, all cells are pelleted, resuspended in 2×26.5 mL of Hepes plus BSA (350 mg) and layered on top of 2×percoll gradients (21.15 mL percoll, 2.35 mL NaCl, 6 drops acetic acid). This is centfifuged at 3000 g for eight minutes forming a percoll gradient which results in viable cells being separated from damaged cells. The viable cells are removed, washed with Hepes and finally resuspended in 25 mL of Hepes.
The isolated cardiac myocytes (2 mL; approximately 1×10^6 cells) are separated into six glass pods. Into four of these are placed selected concentrations of the compound to be tested, and the cells are incubated for twenty minutes, after which the pods are centrifuged at 300 g for three minutes. 300 μL of normoxic Hepes is placed in one of the pods not containing compound and then all pods are placed in a hypoxic chamber (N2 atmosphere). Oxygen is fed via small bore steel tubes to the pod containing the normoxic buffer, while the other five pods receive pre-purified argon (99.998% pure). After two minutes, Hepes (pre-gassed with argon for at least twelve hours) is fed into the five hypoxic pods. This hypoxic environment (pO2 <10 mm Hg) is maintained for twenty minutes, after which the cells and pods are frozen by contact with a metal block precooled in liquid N2. The pods are then removed from the chamber and stored at -70° C. The carnitine assay is performed, as described below in (c), to determine the amount of long-chain acylcarnitine in the cells from the normoxic, hypoxic and hypoxic plus compound samples. […] Thus the IC50 in this screen is the concentration of test compound which produces a 50% inhibition of the hypoxia-induced increase in long-chain acylcarnitines.
(c) Long-chain Acylcarnitine Assay.
The frozen cell samples are thawed, mixed and homogenized with 40 μL of 70% PCA. The homogenate is transferred to eppendorf tubes while the homogenization tube and the glass pod is rinsed with 500 μL of 7% PCA, with the rinse being added to the eppendorf tube. This is then centrifuged at 1000 g for two minutes to pellet the precipitate (containing the long-chain acylcarnitine) and the supernatant is discarded. The pellet is washed twice with 500 μL of 7% PCA, the supernatants being discarded. The pellet is then hydrolyzed (to separate the acyl unit from carnitine to yield free carnitine) by the addition of 200 μL of aleionized H2 O and 50 μL of 5N KOH and incubated at 70° C. for ninety minutes.

For assay [2], the target named is T1, CAT-1 (carnitine acyltransferase 1). Kind of assay: Primary Screen--Inhibition of CAT-1 in isolated mitochondria. The format is biochemical. The note with it: rat heart mitochondria, reduction of palmitoyl carnitine formation by 50%; read-out: Primary Screen IC50.

Each structure is given as a SMILES string. Structures can show the parent of a compound that is named as a salt.

In the case of `CO/N=C(/C(=O)O)c1ccc(OCCOc2ccc3ccccc3c2)s1` [Example 306, (Z)-alpha-(methoxyimino)-5-[2-(2-naphthalenyloxy)ethoxy]-2-thiopheneaceticacid (2:1) hydrate], the IC50 stood at 7000 nM in assay [1] and 300 nM in assay [2].
As for `O=C(O)C(=O)c1ccc(C#CCOc2ccc3ccccc3c2)cc1` [Example 142, 4-[3-(2-naphthalenyloxy)-1-propynyl]-alpha-oxobenzeneacetic acid], the values for the IC50 in assay [1] and in assay [2] were 20000 nM and 1800 nM, respectively.
Taken in the same sequence, the figures for `CC(C)(C)c1ccc(C(=O)COc2ccc(C(=O)C(=O)O)cc2)cc1` [Example 286] were 1200 nM and 300 nM.
As to `O=C(O)C(=O)c1ccc(OCCCc2ccc3ccccc3c2)cc1` [Example 94, 4-[[3-(2-naphthalenyl)propyl]oxy]-alpha-oxobenzeneacetic acid], the IC50 in assay [1] came out at 12000 nM; in assay [2], 80 nM.
Turning to `CCC(C)(C)C(=O)OCc1cccc(C)c1/C=C/COc1ccc(C(=O)C(=O)O)cc1` [Example 220, (E)-4-[3-[2-[(2,2-dimethyl-1-oxobutoxy)methyl]-6-methylphenyl]-2-propenyloxy]-alpha-oxobenzeneacetic acid], the IC50 in assay [1] was found to be 90 nM; in assay [2], 1600 nM.
For `CCC(C)(C)C(=O)OCc1cccc(C)c1OCCOc1ccc(C(=O)C(=O)O)cc1` [Example 136, 4-[[2-[2-[(2,2-Dimethyl-1-oxobutoxy)methyl]-6-methylphenoxy]ethyl]oxy]-alpha-oxobenzeneacetic acid (2:1) hydrate] the same measures were 900 nM and 7700 nM.
With `O=C(O)C(=O)c1ccc(OCCOc2ccc3ccccc3c2)c(Cl)c1` [Example 185, 3-chloro-4-[2-(2-naphthalenyloxy)ethoxy]-alpha-oxobenzeneacetic acid], the IC50 in assay [1] amounted to 12000 nM; in assay [2], 80 nM.
In assay [1], `CCC(C)(C)C(=O)OCc1cccc(C)c1C#CCOc1ccc(C(=O)C(=O)O)cc1` [Example 212, 4-[3-[2-[(2,2-dimethyl-1-oxobutoxy)methyl]-6-methylphenyl]-2-propynyloxy]-alpha-oxobenzeneacetic acid (1:1) morpholine salt] displayed an inhibition of 47%. Further, the IC50 in assay [2] stood at 470 nM.
In the case of `O=C(O)C(=O)c1ccc(OCCSc2ccccc2)cc1` [Example 82, alpha-oxo-4-[[2-(phenylthio)ethyl]oxy]benzeneacetic acid], the IC50 in assay [1] was determined as 17500 nM; in assay [2], 300 nM.
Taken in the same sequence, the figures for `CCC(C)(C)C(=O)OCc1cccc(C)c1OCCOc1ccc([C@H](N)C(=O)O)cc1` [Example 298, (S)-alpha-amino-4-[2-[2-[(2,2-dimethyl-1-oxobutoxy)methyl]-6-methylphenoxy]ethoxy]benzeneacetic acid] were 30000 nM and 2500 nM.
`O=C(O)C(=O)c1ccc(OCCOc2ccc3ccccc3c2)cc1` [Example 86, 4-[[2-(2-naphthalenyloxy)ethyl]oxy]-alpha-oxobenzeneacetic acid]: the concentration for half-maximal inhibition (IC50) was 3000 nM in assay [1] and 80 nM in assay [2].
`O=C(COc1ccc(C(=O)C(=O)O)cc1)NC1CCCCCCC1` [Example 247, 4-[2-(cyclooctylamino)-2-oxoethoxy]-alpha-oxobenzeneacetic acid]: the half-inhibitory concentration (IC50) in assay [1] amounted to 30000 nM; in assay [2], 400 nM.
`CC(C)c1nc(-c2ccccc2)n(-c2ccc(F)cc2)c1/C=C/COc1ccc(C(=O)C(=O)O)cc1` [Example 243, (E)-4-[3-[1-(4-fluorophenyl)-4-(1-methylethyl)-2-phenyl-1H-imidazol-5-yl]-2-propenyloxy]-alpha-oxobenzeneacetic acid]: half-maximal inhibition in assay [1] (IC50) was put at 7000 nM.
`CC(C)c1cccc(-c2ccc(F)cc2)c1OCCOc1ccc(C(=O)C(=O)O)cc1` [Example 234, 4-[2-[4'-fluoro-3-(1-methylethyl)[1,1'-biphenyl]-2-yloxy]ethoxy]-alpha-oxobenzeneacetic acid] displayed an inhibition in assay [1] of 90%.
Regarding `O=C(O)/C(=N/O)c1ccc(OCCOc2ccc3ccccc3c2)s1` [Example 302, (Z)-alpha-(hydroxyimino)-5-[2-(2-naphthalenyloxy)ethoxy]-2-thiopheneaceticacid], the results for the IC50 in assay [1] and in assay [2] were 900 nM and 240 nM, respectively.
For `O=C(O)C(=O)c1ccc(C#CCNC(=O)c2ccc3ccccc3c2)cc1` [Example 146, 4-[3-[[(2-naphthalenyl)carbonyl]amino]-1-propynyl]-alpha-oxobenzeneacetic acid], the IC50 in assay [2] turned out to be 5500 nM.
`O=C(O)C(=O)c1ccc(OCc2ccc3ccccc3c2)cc1` [Example 155, 4-[(2-naphthalenyl)methoxy]-alpha-oxobenzeneacetic acid]: in assay [2], the half-maximal inhibitory concentration (IC50) amounted to 220 nM.
In the case of `O=C(O)/C(=N/OCc1ccccc1)c1ccc(OCCOc2ccc3ccccc3c2)s1` [Example 315, (Z)-5-[2-(2-naphthalenyloxy)ethoxy]-alpha-[(phenylmethoxy)imino]-2-thiopheneacetic acid], in assay [2], the IC50 was determined as 140 nM.
As for `O=C(O)C(=O)c1ccc(CCCNC(=O)c2ccc3ccccc3c2)cc1` [Example 147, 4-[3-[[(2-naphthalenyl)carbonyl]amino]propyl]-alpha-oxobenzeneacetic acid], in assay [2], the IC50 came to 6200 nM.
Still for that read-out and setting: the value for `O=C(O)C(=O)c1ccc(NCCOc2ccc3ccccc3c2)cc1` [Example 168, 4-[[2-(2-naphthalenyloxy)ethyl]amino]-alpha-oxobenzeneaceticacid] was 700 nM; that for `CCCc1c(OCCCOc2ccc(C(=O)C(=O)O)cc2)ccc(C(=O)OC)c1O` [Example 268, 4-[3-[3-hydroxy-4-(methoxycarbonyl)-2-propylphenoxy)propoxy]-alpha-oxobenzeneacetic acid] was 230 nM; that for `O=C(O)C(=O)c1ccc(OCC(=O)c2ccccc2-c2ccccc2)cc1` [Example 288, 4-[2-[[1,1'-biphenyl]-2-yl]-2-oxoethoxy]-alpha-oxobenzeneacetic acid] was 1400 nM.
In assay [1], `CC(C)n1c(/C=C/COc2ccc(C(=O)C(=O)O)cc2)c(-c2ccc(F)cc2)c2ccccc21` [Example 241, (E)-4-[3-[3-(4-fluorophenyl)-1-(1-methylethyl)-1H-indole-2-yl]-2-propenyloxy]-alpha-oxobenzeneacetic acid (1:1) morpholine salt] showed an IC50 of 12000 nM.
Turning to `O=C(O)C(=O)c1ccc(OCC(=O)N2CCOCC2)cc1` [Example 255, 4-[2-(4-morpholinyl)-2-oxoethoxy]-alpha-oxobenzeneacetic acid], the half-inhibitory concentration (IC50) in assay [2] worked out at 12000 nM.
In the case of `O=C(O)C(=O)c1ccc(OCCCCCOc2ccccc2)cc1` [Example 73, alpha-oxo-4-[[(5-phenoxy)pentyl]oxy]benzeneacetic acid], in assay [2], the IC50 turned out to be 5000 nM.
Still for that read-out and setting: in the case of `CCC(C)(C)C(=O)Oc1cccc2ccc(OCCOc3ccc(C(=O)C(=O)OC)cc3)cc12` [Example 133, 4-[[2-[8-(2,2-dimethyl-1-oxobutoxy)-2-naphthalenyloxy]ethyl]oxy]-alpha-oxobenzeneacetic acid methyl ester] it was 35000 nM; in that of `CCCc1c(OCCCOc2ccc(C(=O)C(=O)O)cc2)ccc(C(C)=O)c1OC` [Example 271, 4-[3-[4-acetyl-3-methoxy-2-propylphenoxy)propoxy]-alpha-oxobenzeneacetic acid], 460 nM.
On the same count and under the same terms, in the case of `O=C(O)C(=O)c1ccc(OCCOc2ccc(C(F)(F)F)cc2)cc1` [Example 51, alpha-oxo-4-[[2-(4-trifluoromethylphenoxy)ethyl]oxy]benzeneacetic acid] it was 800 nM.
Same read-out and setting: the value for `O=C(O)C(=O)c1ccc(OCCCCCCc2cccc(OCc3ccccc3)c2OCc2ccccc2)cc1` [Example 259, 4-[6-[2,3-bis-(phenylmethoxy)phenyl]hexyloxy]-alpha-oxobenzeneacetic acid] was 1200 nM; that for `O=C(O)C(F)(F)c1ccc(OCCOc2ccccc2)cc1` [Example 11, alpha, alpha-difluoro-4-[[2-(phenoxy)ethyl]oxy]benzeneacetic acid] was 18000 nM.
Turning to `O=C(O)C(=O)c1ccc(OCCOc2ccc(-c3ccccc3)cc2)cc1` [Example 57, 4-[[2-[4-(1,1'-biphenyl)oxy]ethyl]oxy]-alpha-oxobenzeneacetic acid], in assay [2], the IC50 is 5000 nM.
`O=C(O)C(=O)c1ccc(OCc2ccc3ccccc3n2)cc1` [Example 159, 4-[(2-quinolinyl)methoxy]-alpha-oxo-benzeneacetic acid]: the 50% inhibitory concentration (IC50) in assay [2] is 5100 nM.
On the same count and under the same terms, in the case of `O=C(O)C(=O)c1ccc(OCCOc2ccc(C(=O)C(=O)O)cc2)cc1` [Example 55] it was 6000 nM; in that of `O=C(O)C(=O)c1ccc(OCCOc2cccc(F)c2)cc1` [Example 41, 4-[[2-(3-fluorophenoxy)ethyl]oxy]-alpha-oxobenzeneacetic acid], 1000 nM.
